According to US10381110B2, “Molecules” (University of Dundee, priority 2010, dated 2019):

How the values were obtained:
[1] = biological target: dopamine D5 (Homo sapiens, UniProt P21918); test: Secondary radioligand binding assay (Ki); settings: read-out: Experimental Receptor Binding Data-Ki D5; Table 25, GPCR panel
Method: (§1) Radioligand is diluted to five times the assay concentration (see Table 18) in Standard Binding Buffer. Typically, the assay concentration of radioligand is a value between one half the KD and the KD of a particular radioligand at its target. 50 μl aliquots of radioligand are dispensed into the wells of a 96-well plate containing 100 μl of Standard Binding Buffer. Then, duplicate 50 μl aliquots of the test and reference compound dilutions are added.
The 250 μl reactions are incubated at room temperature and shielded from light (to prevent photolysis of light-sensitive ligands) for 1.5 hours, then harvested by rapid filtration onto Whatman GF/B glass fiber filters pre-soaked with 0.3% polyethyleneimine using a 96-well Brandel harverster. Four rapid 500 μl washes are performed with chilled Standard Binding Buffer to reduce non-specific binding. Filters are placed in 6 ml scintillation tubes and allowed to dry overnight. The next day, 4 ml of EcoScint scintillation cocktail (National Diagnostics) are added to each tube. The tubes are capped, labeled, and counted by liquid scintillation counting. […] The filter mats are dried, then scintillant is melted onto the filters and the radioactivity retained on the filters is counted in a Microbeta scintillation counter. […]

[2] = biological target: T1, 5-HT3 (Homo sapiens, UniProt P46098); test: Secondary radioligand binding assay (Ki)
T1 sequence (P46098 24-478): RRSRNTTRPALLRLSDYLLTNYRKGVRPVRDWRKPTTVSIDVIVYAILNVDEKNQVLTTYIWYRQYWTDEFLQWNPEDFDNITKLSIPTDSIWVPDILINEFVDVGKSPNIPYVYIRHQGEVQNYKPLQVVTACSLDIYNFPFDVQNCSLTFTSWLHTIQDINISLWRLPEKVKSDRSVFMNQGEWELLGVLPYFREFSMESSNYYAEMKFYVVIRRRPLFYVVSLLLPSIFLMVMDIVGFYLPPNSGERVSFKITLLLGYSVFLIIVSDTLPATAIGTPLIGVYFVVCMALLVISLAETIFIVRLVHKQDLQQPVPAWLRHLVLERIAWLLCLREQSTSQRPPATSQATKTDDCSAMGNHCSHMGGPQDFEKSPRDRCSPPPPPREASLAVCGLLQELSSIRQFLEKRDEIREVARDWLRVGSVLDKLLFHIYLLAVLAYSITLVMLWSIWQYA
Method: Assay Buffer: Standard Binding Buffer (50 mM Tris-HCl, 10 mM MgCl2, 1 mM EDTA, pH 7.4)
Membrane Fraction Source: Transiently or stably transfected cell lines (e.g., HEK293, COS, CHO, NIH3T3)
as §1
The 250 μl reactions are incubated at room temperature and shielded from light (to prevent photolysis of light-sensitive ligands) for 1.5 hours, then harvested by rapid filtration onto Whatman GF/B glass fiber filters pre-soaked with 0.3% polyethyleneimine using a 96-well Brandel harverster. Four rapid 500 μl washes are performed with chilled Standard Binding Buffer to reduce non-specific binding. Filters are placed in 6 ml scintillation tubes and allowed to dry overnight. […] The tubes are capped, labeled, and counted by liquid scintillation counting. […] The filter mats are dried, then scintillant is melted onto the filters and the radioactivity retained on the filters is counted in a Microbeta scintillation counter. […]

dopamine D5, sequence (P21918 whole entry): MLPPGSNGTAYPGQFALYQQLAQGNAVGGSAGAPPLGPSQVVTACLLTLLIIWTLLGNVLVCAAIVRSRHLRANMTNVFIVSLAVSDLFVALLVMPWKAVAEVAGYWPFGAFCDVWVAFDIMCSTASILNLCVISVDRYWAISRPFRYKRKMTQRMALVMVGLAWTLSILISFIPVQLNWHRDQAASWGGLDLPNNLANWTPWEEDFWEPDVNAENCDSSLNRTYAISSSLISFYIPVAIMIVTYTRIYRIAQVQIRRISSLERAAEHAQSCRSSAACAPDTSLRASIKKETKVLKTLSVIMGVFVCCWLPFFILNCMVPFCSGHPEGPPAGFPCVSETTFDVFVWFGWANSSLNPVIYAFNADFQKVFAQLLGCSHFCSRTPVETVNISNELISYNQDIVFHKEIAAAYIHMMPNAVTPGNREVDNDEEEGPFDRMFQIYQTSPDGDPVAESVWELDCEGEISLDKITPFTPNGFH

| Compound | Ki [1] [nM] | Ki [2] [nM] |
| --- | --- | --- |
| COc1cc2c(cc1OC)C(=O)N(CCCCN1CCN(c3ccccc3OC)CC1)C2 [GFR-VII-285] | 1890 |  |
| CC1Cc2ccccc2N1C(=O)CN1CCN(Cc2ccccc2)CC1 (centres unmarked) [STT-00185638, 2-[-4-(benzyl)-piperazin-1-yl]-1-(2-methy-2,3-dihydro-indol-1-yl)-ethanone] |  | 2110 |
